These results are taken from patent US20260242359A1, “IRHOM2 INHIBITORS AND USES THEREOF” (NEW YORK SOCIETY FOR THE RELIEF OF THE RUPTURED AND …, priority 2023, published 2026).

The subject of this assay is PMA-induced release of endogenous HB-EGF from human THP-1 macrophage cells. Briefly: Example 15: ELISA-based HB-EGF release assay, PMA-induced, THP-1 macrophage cells. Type of assay: cell-based. Conditions: read-out: inhibition of PMA-induced release of HB-EGF from THP-1 cells. As for the experimental part: In the following study, ELISA-based HB-EGF release assays were performed to analyze the inhibitory effects of Compounds 1, 2, 3, 4, 5, and 7 on PMA-induced release of endogenous HB-EGF from human THP-1 macrophage cells. The ELISA-based HB-EGF release assay that was used in this example is described below.
In brief, on day 1, Nunc black MaxiSorp® 96-well plates (Thermo Fisher Scientific, USA) were coated overnight with 100 μl per well of mouse anti-human HB-EGF capture antibody (provided as part of the DuoSet ELISA kit) at 2 μg/ml TBS at 4° C.
40,000 THP-1 cells (American Type Culture Collection, USA) cells in 80 μl of normal growth medium were seeded in each well of Greiner CELLSTAR V-bottom 96-well plates (Greiner Bio-One, Germany) and pre-incubated with 20 μl per well of standard growth medium supplemented with Batimastat (BB94, Abcam, UK) at 50 μM as positive control (for a final concentration of 10 μM in the resulting 100 μl sample volume), compounds of the invention at 50 μM (for a final concentration of 10 μM in the resulting 100 μl sample volume) and in case of Buffer stimulated and unstimulated controls with DMSO (Carl Roth, Germany) at 50 μM (for a final concentration of 10 μM in the resulting 100 μl sample volume) at 37° C., 5% CO2 for 30 minutes. Subsequently, cells (except those for unstimulated controls) were stimulated with 20 μl per well of PMA (Sigma-Aldrich, USA) at 150 ng/ml in growth medium for a final concentration of 25 ng/ml at 37° C., 5% CO2 for 23 hours.
On day 2, the capture antibody solution was removed and MaxiSorp® plates were blocked with 300 μl per well of TBS, 1% BSA at room temperature for 1-2 hours. Meanwhile, the 96-well plates were centrifuged to pellet cells. In parallel, blocking buffer was removed from the MaxiSorp® plates and plates were washed 4 times with 350 μl TBS-T (Carl Roth, Germany) per well on a 96-head plate washer (Tecan Group, Switzerland). To avoid drying-up, 30 μl TBS were added to each well of the MaxiSorp® plates immediately, followed by the transfer of 70 μl cell-free supernatant per sample. Additionally, 100 μl recombinant human HB-EGF protein (provided as part of the DuoSet ELISA kit) diluted in TBS at defined concentrations were added to the plate as standard references. Plates were incubated at room temperature for 2 hours. After 4 times washing with 350 μl TBS-T (Carl Roth, Germany) per well on a 96-head plate washer (Tecan Group, Switzerland) and careful removal of all buffer traces after the fourth cycle, 100 μl biotinylated goat anti-human HB-EGF detection antibody (provided as part of the DuoSet ELISA kit) at 50 ng/ml TBS were added per well and, protected from direct light, plates were incubated at room temperature for 2 hours.
After 4 times washing with 350 μl TBS-T (Carl Roth, Germany) per well on a 96-head plate washer (Tecan Group, Switzerland) and careful removal of all buffer traces after the fourth cycle, 100 μl streptavidin-AP (R&D Systems, USA) diluted 1:10,000 in TBS were added to each well and, again protected from direct light, plates were incubated at room temperature for 30 minutes. Following another round of 4 times washing with 350 μl TBS-T (Carl Roth, Germany) per well on a 96-head plate washer (Tecan Group, Switzerland) and careful removal of all buffer traces after the fourth cycle, 100 μl AttoPhos substrate solution (Promega, USA) per well was added for incubation in the dark at room temperature for 1 hour. Using an infinite M1000 (Tecan Group, Switzerland) microplate reader, the fluorescence of each well was collected at an excitation wavelength of 435 nm and an emission wavelength of 555 nm.
The delta between Buffer stimulated and Buffer unstimulated was defined 100% inhibition.

Where [1] appears, read: THP-1, 10 μM final concentration, PMA 25 ng/ml, 23 hours, delta Buffer stimulated vs unstimulated = 100% inhibition.

Like-named read-outs stand apart in the source and are kept apart here.

As to `CNC(=O)[C@H](Cc1ccccc1)NC(=O)[C@H](CC(C)C)[C@H](CSc1cccs1)C(=O)NO` [Batimastat, reference compound], under setting [1], the inhibition at 10 µM is 99.2%.
On to `CCC(=O)NCCc1c(/C=C2/C(=O)NC(=O)N(c3ccc(C)cc3C)C2=O)[nH]c2ccccc12` [Compound 1], for which, where the note is “THP-1, 23 h”, the inhibition at 10 µM was 95.4%.
In the case of `CCOC(=O)c1ccc(Nc2nc3nonc3n3nnnc23)cc1` [Compound 2], the inhibition at 10 µM under setting [1] came to 77.5%.
Same read-out and setting: then `O=C(c1c(Cl)cccc1Cl)N1CCC(Cc2ccc(F)cc2)CC1` [Compound 3], with 29.6%; and `Cc1c(C(=O)NCc2cccs2)sc(=O)n1Cc1ccccc1` [Compound 4], with 62.5%.
As for `Cc1c(C(=O)NCc2cccs2)sc(=O)n1Cc1ccccc1F` [Compound 5], the inhibition at 10 µM under setting [1] was 55.1%.
On the same count and under the same terms, with `Cc1c(C(=O)NCc2ccco2)sc(=O)n1Cc1ccccc1F` [Compound 7] the figure was 95.1%.
